Source: US11738120B1, “Synthesis of taurolidine, purity profiles and polymorphs” (CorMedix Inc., priority 2022, dated 2023)
Read-outs that look alike come from different tables or passages of the source. Blank lines part the entries; values can stand above or below the compound they belong to.

What was measured:
[1] = cited from earlier work; for ΔpH @ −20° C.: pH shift during freezing
[2] = cited from earlier work
[3] = Solubility of taurolidine polymorphs in aqueous citric acid; format: physicochemical; settings: in 26.1 mg/mL aqueous citric acid, at T=25° C.
Method: Taurolidine Polymorphs A and B synthesized according to the Present Synthesis may both be soluble in 26.1 mg/mL aqueous citric acid, at T=25° C.

[4] = Long term stability tests of taurolidine solution with citric acid and sodium citrate; format: physicochemical; settings: citric acid and sodium citrate in combination; compared with taurolidine solution prepared with polyvinylpyrrolidone (PVP)
From the text: The composition employed in the practice of the present invention preferably also contains a pharmacologically acceptable carrier solution, such as, water for injection.

SMILES: CC(=O)O [Acetic acid]
pH @ 25° C. [1]: 5.6
ΔpH @ −20° C. [1]: +0.5

SMILES: O=C(O)CC(O)(CC(=O)O)C(=O)O [Citric acid]
pH @ 25° C. [1]: 6.2
ΔpH @ −20° C. [1]: −0.2

SMILES: N[C@@H](CCC(=O)O)C(=O)O [Glutamic acid]
pKa ([2]; second pKa value): 4.1
pKa ([2]; third pKa value printed in the cell): 9.5

SMILES: N[C@@H](Cc1c[nH]cn1)C(=O)O [Histidine]
pH @ 25° C. [1]: 5.4
ΔpH @ −20° C. [1]: +0.8

SMILES: O=C(O)CC(O)C(=O)O (stereo not drawn) [Malic acid]
pKa ([2]; second pKa value): 3.4, 5.1
pH @ 25° C. [1]: 5.0
ΔpH @ −20° C. [1]: −0.3

solubility [3]: soluble
SMILES: O=S1(=O)CCN(CN2CCS(=O)(=O)NC2)CN1 [Polymorph A, taurolidine]

SMILES: NC(CO)(CO)CO [Tromethamine]
pH @ 25° C. [1]: 7.2
ΔpH @ −20° C. [1]: +2.1

stability and solubility of taurolidine in solution [4]: increases the stability and solubility
SMILES: O=S1(=O)CCN(CN2CCS(=O)(=O)NC2)CN1 [taurolidine]
